± gives the standard deviation of the averaged measurements.
Experiment: TIMS collisional cross section (CCS, N2) of the lipid ion; higher = larger ion cross section
Conditions: ionization mode: negative, one isomer drawn
Method: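 Lipid extracts of human plasma (NIST SRM 1950), mouse liver or HeLa cells were separated by nanoflow C18 LC (30 min gradient) and analysed by TIMS-PASEF on a timsTOF Pro. Ion mobility was calibrated with the Agilent tuning mix (negative mode ions) and converted to collisional cross sections (Mason–Schamp, N2).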

[1] = sample type: Mouse Liver, ion (formula + adduct): [C45H79O13P-H] 1-
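Further: lipids from MTBE extraction, five replicate injections per sample, 100 ms TIMS ramp spanning 0.6–1.95 Vs/cm², lipid identity assigned from PASEF MS/MS spectra.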

For `CCCCC/C=C\C[C@H](O)/C=C/C=C\C/C=C\CCCC(=O)O[C@H](COC(=O)CCCCCCCCCCCCCCC)COP(=O)([O-])OCC[N+](C)(C)C` [Oxidized PC 16:0@_20:4], the “TIMS collisional cross section” value (sample type: Mouse Liver, ion (formula + adduct): [C44H80NO9P-CH3] 1-) was 281.3 Å².
In the case of `CCCCCCCCCCCCCCCCCC(=O)O[C@H](COC(=O)CCCCCCCCCCCCCC)COP(=O)([O-])OCC[N+](C)(C)C` [PC 15:0_18:0@], the “TIMS collisional cross section” value (sample type: Human plasma, ion (formula + adduct): [C41H82NO8P+HCOO] 1-) is reported as 291.1 Å².
For `CC/C=C\C/C=C\C/C=C\C/C=C\C/C=C\C/C=C\CCC(=O)O[C@H](COC(=O)CCCCCCCCC/C=C\CCCCCCCC)COP(=O)([O-])OCC[N+](C)(C)C` [PC 20:1_22:6@], the “TIMS collisional cross section” value (sample type: Mouse Liver, ion (formula + adduct): [C50H86NO8P+HCOO] 1-) was 306.7 Å².
In the case of `CCCCC/C=C\C/C=C\CCCCCCCC(=O)O[C@@H](CO)COC(=O)CCCCCCCCCCC` [DG 12:0@_18:2_0:0], the “TIMS collisional cross section” value (sample type: Human plasma, ion (formula + adduct): [C33H60O5-H] 1-) is reported as 229.1 Å².
With `CCCCCC/C=C\CCCCCCCCCC(=O)O[C@H](COC(=O)CCCCCCCCCCCCC)COP(=O)([O-])OCC[N+](C)(C)C` [PC 14:0_18:1] the “TIMS collisional cross section” value (sample type: Mouse Liver, ion (formula + adduct): [C40H78NO8P+HCOO] 1-) was 286 Å².
With `CCCCC/C=C\C/C=C\CCCCCCCC(=O)OC(COC(=O)CCCCCCCCCCCCCCCCC)COP(=O)(O)OCCN` (configuration not stated) [PE 18:0_18:2] the “TIMS collisional cross section” value (sample type: Mouse Liver, ion (formula + adduct): [C41H78NO8P-H] 1-) was 272.8 Å².
With `CCCCC/C=C\C/C=C\C/C=C\C/C=C\CCCC(=O)O[C@@H](CO)COC(=O)CCCCCCCCCCCCC` [DG 14:0@_20:4_0:0] the “TIMS collisional cross section” value (sample type: Human plasma, ion (formula + adduct): [C37H64O5+HCOO] 1-) was 256.2 Å².
For `CCCCC/C=C\C/C=C\C/C=C\C/C=C\CCCC(=O)O[C@H](COCCCCCCCCCCCCCCC)COP(=O)([O-])OCC[N+](C)(C)C` [PC O- 15:0@_20:4], the “TIMS collisional cross section” value (sample type: Human plasma, ion (formula + adduct): [C43H80NO7P-H] 1-) was 276.3 Å².
With `CCCC/C=C\CCCCCCCC(=O)OC[C@H](COP(=O)(O)OC[C@H](N)C(=O)O)OC(=O)CCCCCCCCCCCCCCC` [PS 14:1@_16:0] the “TIMS collisional cross section” value (sample type: Human plasma, ion (formula + adduct): [C36H68NO10P-H] 1-) was 269 Å² and the “TIMS collisional cross section” value (sample type: Mouse Liver, ion (formula + adduct): [C36H68NO10P-H] 1-) was 268.4 Å².
With `CCCCCCCC/C=C\CCCCCCCC(=O)O[C@H](COC(=O)CCCCCCCCCCCCCCCC)COP(=O)([O-])OCC[N+](C)(C)C` [PC 17:0_18:1] the “TIMS collisional cross section” value (sample type: Human plasma, ion (formula + adduct): [C43H84NO8P+HCOO] 1-) was 294.5 Å².
For `CCCCC/C=C\C/C=C\C/C=C\C/C=C\CCCC(=O)OC[C@H](COP(=O)(O)OC1[C@H](O)[C@H](O)C(O)[C@H](O)[C@H]1O)OC(=O)CCCCCCCCCCCCCCC` (some centres not stated) [PI 20:4@_16:0], the “TIMS collisional cross section” value [1] was 303.5 Å².
With `CCCCC/C=C\C/C=C\CCCCCCCC(=O)OC[C@H](COP(=O)(O)OCC(O)COP(=O)(O)OC[C@@H](COC(=O)CCCCCCC/C=C\C/C=C\CCCCC)OC(=O)CCCCCCC/C=C\C/C=C\CCCCC)OC(=O)CCCCCCC/C=C\C/C=C\CCCCC` (some centres not stated) [CL 18:2_18:2_18:2_18:2] the “TIMS collisional cross section” value (sample type: Mouse Liver, ion (formula + adduct): [C81H142O17P2-H] 2-) was 411.8 Å².
In the case of `CCCCC/C=C\C/C=C\CCCCCCCC(=O)OC[C@H](COP(=O)(O)OC1C(O)C(O)C(O)[C@@H](O)C1O)OC(=O)CCCCCCC/C=C\C/C=C\CCCCC` (some centres not stated) [PI 18:2_18:2], the “TIMS collisional cross section” value [1] is reported as 290.2 Å².
In the case of `CC/C=C\C/C=C\C/C=C\C/C=C\C/C=C\C/C=C\CCC(=O)OC[C@H](COP(=O)([O-])OCC[N+](C)(C)C)OC(=O)CC/C=C\C/C=C\C/C=C\C/C=C\C/C=C\C/C=C\CC` [PC 22:6_22:6], the “TIMS collisional cross section” value (sample type: Mouse Liver, ion (formula + adduct): [C52H80NO8P+HCOO] 1-) is reported as 304.9 Å².
In the case of `CC/C=C\C/C=C\C/C=C\C/C=C\C/C=C\C/C=C\CCC(=O)OC[C@@H](O)COP(=O)(O)OC[C@H](N)C(=O)O` [LPS 22:6], the “TIMS collisional cross section” value (sample type: Mouse Liver, ion (formula + adduct): [C28H44NO9P-H] 1-) is reported as 230.2 Å².
For `CCCCC/C=C\C/C=C\CCCCCCCC(=O)O[C@H](CO/C=C\CCCCCCCCCCCCCCCCCC)COP(=O)([O-])OCC[N+](C)(C)C` [PC P- 20:0@_18:2], the “TIMS collisional cross section” value (sample type: Human plasma, ion (formula + adduct): [C46H88NO7P-CH3] 1-) was 285.4 Å².
For `CCCCC/C=C\C/C=C\C/C=C\C/C=C\CCCC(=O)O[C@H](COC(=O)CCCCCCCCCCCCCCCCCCC)COP(=O)([O-])OCC[N+](C)(C)C` [PC 20:0_20:4], the “TIMS collisional cross section” value (sample type: Mouse Liver, ion (formula + adduct): [C48H88NO8P+HCOO] 1-) was 304.5 Å².
With `CCCCCCCCCCCCCCCCCC(=O)OC[C@H](COP(=O)(O)O)OC(=O)CCCCCCCCCCCCCCC` [PA 18:0@_16:0] the “TIMS collisional cross section” value (sample type: Mouse Liver, ion (formula + adduct): [C37H73O8P+Cl] 1-) was 267.2 Å².
For `CCCCC/C=C\C/C=C\CCCC/C=C\CCCC(=O)O[C@H](COC(=O)CCCCCCCCCCCCCCCCC)COP(=O)([O-])OCC[N+](C)(C)C` [PC 18:0_20:3@], the “TIMS collisional cross section” value (sample type: Mouse Liver, ion (formula + adduct): [C46H86NO8P+HCOO] 1-) was 300.6 Å².
In the case of `CCCCC/C=C\C/C=C\C/C=C\C/C=C\CCCCCC(=O)O[C@H](COC(=O)CCCCCCC/C=C\CCCCCC)COP(=O)([O-])OCC[N+](C)(C)C` [PC 16:1@_22:4], the “TIMS collisional cross section” value (sample type: Mouse Liver, ion (formula + adduct): [C46H82NO8P+HCOO] 1-) is reported as 297.7 Å².
For `CCCCCC/C=C/CCCCCCCC(=O)OC[C@@H](O)COP(=O)([O-])OCC[N+](C)(C)C` [LPC 16:1_0:0], the “TIMS collisional cross section” value (sample type: Human plasma, ion (formula + adduct): [C24H48NO7P+HCOO] 1-) was 236.14 ± 0.68 Å², the “TIMS collisional cross section” value (sample type: Human plasma, ion (formula + adduct): [C24H48NO7P-CH3] 1-) was 237.8 Å² and the “TIMS collisional cross section” value (sample type: Mouse Liver, ion (formula + adduct): [C24H48NO7P+HCOO] 1-) was 235 ± 0.42 Å².
For `CC/C=C\C/C=C\C/C=C\C/C=C\C/C=C\CCCC(=O)OC[C@H](COP(=O)(O)OC[C@H](N)C(=O)O)OC(=O)CCCCCCCCCCCCCCCCC` [PS 20:5_18:0], the “TIMS collisional cross section” value (sample type: Mouse Liver, ion (formula + adduct): [C44H76NO10P-H] 1-) was 284.6 Å².
In the case of `CC/C=C\C/C=C\C/C=C\C/C=C\C/C=C\C/C=C\CCC(=O)O[C@H](COC(=O)CCCCCCCCCCCCCCCC)COP(=O)([O-])OCC[N+](C)(C)C` [PC 17:0_22:6], the “TIMS collisional cross section” value (sample type: Mouse Liver, ion (formula + adduct): [C47H82NO8P+HCOO] 1-) is reported as 300.6 Å².
In the case of `CCCCC/C=C\C/C=C\CCCCCCCC(=O)OC[C@H](COP(=O)(O)OC[C@H](N)C(=O)O)OC(=O)CCCCCCCCCCCCCCC` [PS 18:2@_16:0], the “TIMS collisional cross section” value (sample type: Mouse Liver, ion (formula + adduct): [C40H74NO10P-H] 1-) is reported as 282.6 Å².
For `CCCCCCCCCCCCCCCCOCC(O)COP(=O)([O-])OCC[N+](C)(C)C` (configuration not stated) [LPC O- 16:0], the “TIMS collisional cross section” value (sample type: Human plasma, ion (formula + adduct): [C24H52NO6P+HCOO] 1-) was 236.6 Å².
For `CCCCC/C=C\C/C=C\C/C=C\C/C=C\CCCC(=O)O[C@H](COC(=O)CCCCCCCCCCCCC)COP(=O)([O-])OCC[N+](C)(C)C` [PC 14:0_20:4], the “TIMS collisional cross section” value (sample type: Human plasma, ion (formula + adduct): [C42H76NO8P+HCOO] 1-) was 288.2 Å² and the “TIMS collisional cross section” value (sample type: Mouse Liver, ion (formula + adduct): [C42H76NO8P+AcO] 1-) was 290.4 Å².
With `CCCCC/C=C\C/C=C\C/C=C\C/C=C\CCCC(=O)O[C@H](COC(=O)CCCCCCCCCCCCCCC)COP(=O)(O)OCCN` [PE 16:0_20:4] the “TIMS collisional cross section” value (sample type: Mouse Liver, ion (formula + adduct): [C41H74NO8P-H] 1-) was 270.7 ± 0.46 Å².
In the case of `CCCCCCCCCCCCCCCC(=O)OC[C@@H](O)COP(=O)(O)O` [LPA 16:0_0:0], the “TIMS collisional cross section” value (sample type: Human plasma, ion (formula + adduct): [C19H39O7P-H] 1-) is reported as 201.2 Å².
For `CCCCC/C=C\C/C=C\C/C=C\C/C=C\CCCC(=O)O[C@H](COC(=O)CCCCCCCCCCCCCCCCC)COP(=O)(O)OC1C(O)C(O)C(O)[C@@H](O)C1O` (some centres not stated) [PI 18:0_20:4@], the “TIMS collisional cross section” value (sample type: Human plasma, ion (formula + adduct): [C47H83O13P-H] 1-) was 298.1 Å².
In the case of `CC/C=C\C/C=C\C/C=C\C/C=C\C/C=C\C/C=C\CCC(=O)O[C@H](COCCCCCCCCCCCCCCCCCC)COP(=O)([O-])OCC[N+](C)(C)C` [PC O- 18:0@_22:6], the “TIMS collisional cross section” value (sample type: Human plasma, ion (formula + adduct): [C48H86NO7P+HCOO] 1-) is reported as 303.2 Å².
With `CCCCC/C=C\C/C=C\C/C=C\C/C=C\CCCCCC(=O)O[C@H](CO/C=C\CCCCCCCCCCCCCC)COP(=O)(O)OCCN` [PE P- 16:0@_22:4] the “TIMS collisional cross section” value (sample type: Human plasma, ion (formula + adduct): [C43H78NO7P-H] 1-) was 276.3 Å².
With `CCCCC/C=C\C[C@H](O)/C=C/C=C\C/C=C\CCCC(=O)O[C@H](COC(=O)CCCCCCCCCCCCCCCCC)COP(=O)(O)OCCN` [Oxidized PE 18:0@_20:4] the “TIMS collisional cross section” value (sample type: Human plasma, ion (formula + adduct): [C43H78NO9P-H] 1-) was 298.2 Å² and the “TIMS collisional cross section” value (sample type: Mouse Liver, ion (formula + adduct): [C43H78NO9P-H] 1-) was 281.9 Å².
